The record followed here is US20220380385A1, “PYRIMIDINE FIVE-MEMBERED NITROGEN HETEROCYCLIC DERIVATIVE, PREPARATION METHOD THEREOF AND PHARMACEUTICAL USE THEREOF” (TUOJIE BIOTECH(SHANGHAI) CO., LTD., priority 2019, published 2022).

Data set [1] deals with T1, full-length SHP2 (aa 1-593) (Homo sapiens, UniProt Q06124).
T1 sequence (Q06124 1-593): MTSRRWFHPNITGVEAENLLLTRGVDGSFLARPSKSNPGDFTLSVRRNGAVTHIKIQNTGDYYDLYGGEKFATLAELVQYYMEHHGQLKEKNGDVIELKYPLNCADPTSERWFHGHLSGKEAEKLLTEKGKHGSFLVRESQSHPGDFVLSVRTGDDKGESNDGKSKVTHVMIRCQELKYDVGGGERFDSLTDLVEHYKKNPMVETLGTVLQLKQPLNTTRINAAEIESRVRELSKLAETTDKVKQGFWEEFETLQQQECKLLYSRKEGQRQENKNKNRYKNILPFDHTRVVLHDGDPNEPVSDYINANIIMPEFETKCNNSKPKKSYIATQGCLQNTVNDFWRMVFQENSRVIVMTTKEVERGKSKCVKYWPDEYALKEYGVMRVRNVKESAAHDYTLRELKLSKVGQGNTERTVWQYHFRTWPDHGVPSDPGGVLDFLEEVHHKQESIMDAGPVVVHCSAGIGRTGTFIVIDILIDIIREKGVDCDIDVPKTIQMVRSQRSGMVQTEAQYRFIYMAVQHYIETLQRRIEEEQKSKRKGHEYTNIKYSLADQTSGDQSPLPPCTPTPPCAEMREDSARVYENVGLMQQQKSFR
The data set can be described thus: Activity on SHP2 phosphatase (DiFMUP fluorescence).
Procedure: 0.2 nM recombinantly expressed full-length SHP2 (aa 1-593), 0.5 nM activated polypeptide IRS1 with dual phosphorylation sites (sequence: H2N-LN(pY)IDLDLY(dPEG8)LST(pY)ASINFQK-amide), and a series of concentrations of the test compound (final concentrations of 1 μM, 0.3 μM, 0.1 μM, 0.03 μM, 0.01 μM, 0.003 μM, 0.001 M, 0.0003 μM, 0.0001 μM and 0.00003 μM) were added into the phosphatase reaction solution (60 mM HEPES, PH 7.5 0.005% Brij-35, 75 mM NaCl, 75 mM KCl, 1 mM EDTA, 5 mM DTT), followed by shaking (350 rpm) at room temperature for 30 minutes. Then the reaction substrate DiFMUP was added at a final concentration of 30 μM, and the reaction solution was reacted at room temperature for 30 minutes. Then the phosphatase reaction was stopped by adding 5 μL of the reaction stop solution (60 mM HEPES, pH 7.5, 0.2% SDS). Ex358 nm/Em455 fluorescence value was read on the fluorescence plate reader MD SpectraMax.
The IC50 value of compounds was calculated by using the four-parameter logit method. […] Different concentrations correspond to different inhibition rates of phosphatase activity. A reverse curve was plotted and the IC50 of the inhibitors was calculated from the curve. The IC50 of compounds was calculated by using Primer premier 6.0.

Data set [2] can be described thus: In vitro metabolic stability in rat liver microsomes. The format is in vitro ADME. To be noted: rat liver microsomes (male Wistar Han), NADPH, 37° C.; read-out: Intrinsic clearance rate. How it is done:
The concentration of the compound in the reaction system was determined by LC/MS/MS, so as to calculate the intrinsic clearance rate of the test compound and to evaluate the in vitro metabolic stability in rat liver microsomes.
222.5 μL, 1.1236 mg/mL of a mixed solution of rat liver microsomes (male Wistar Han strain, purchased from Corning, catalog number 452511) and 25 μL, 10 mM of NADPH were added into the incubation plate. The mixture was mixed by vortexing for 10 seconds. The plate was incubated in a water bath at 37° C. for 8 minutes. 2.5 μL, 100 μM of the test compound or positive control was added to the incubation plate to start the reaction. The mixture was mixed by vortexing for 12 seconds, and incubated in a water bath at 37° C. The reaction was stopped by transferring 20 μL of the incubation system to a stop plate containing 100 μL of cold stop solution at 0.5, 5, 10, 15, 20 and 30 minutes. The mixture was mixed by vortexing for 2 minutes. The stop plate was centrifuged at 4000 rpm for 20 minutes, then left to stand at 4° C. for 30 minutes, and then centrifuged at 4000 rpm for 20 minutes. 40 μL of the supernatant of each compound was transferred to a 96-well injection plate, and 160 μL of pure water was added to dilute the samples.
The obtained samples were quantified by ion chromatogram, and the residual rate was calculated according to the peak area of the test compounds or positive control. The slope k was determined by linear regression of the natural logarithm of the residual rate to the incubation time by using Microsoft Excel.
The in vitro half-life (in vitro t1/2) was calculated from the slope: in vitro t1/2=−(0.693/k)
The following equation was used to convert in vitro half-life into intrinsic clearance rate (in vitro CLint, μL/min/mg protein):
in vitro CLint=(0.693/t1/2)×(incubation volume (L)/protein amount (mg))

Data set [3] in a line: In vivo pharmacokinetics in cynomolgus monkeys (gavage). Particulars: male, plasma, po, 5 mg/kg, original drug, cynomolgus monkey, 5 mpk. As for the experimental part: Cynomolgus monkeys were used as the test animals. The plasma drug concentration at different times after the cynomolgus monkeys were given the compounds of the invention by gavage was determined by using the LC/MS/MS method. The in vivo pharmacokinetic behavior of the compounds of the present invention in cynomolgus monkeys was studied, and pharmacokinetic characteristics thereof were evaluated.
Test animals: 3 healthy, 2-5 years old male cynomolgus monkeys in each group;
Administration by gavage: a certain amount of drug was weighed, and 0.5% by mass of hypromellose, 0.1% by volume of Tween 80 and 99.4% by volume of water were added thereto to formulate a white suspension at 1 mg/mL.
The cynomolgus monkeys were fasted overnight, and then the drug was administered by gavage at a dose of 5 mg/kg.
Cynomolgus monkeys were administered the compounds of the present invention by gavage. At 0.25, 0.5, 1, 2, 4, 8 and 24 hours after administration, 0.2 mL of blood was collected from the peripheral vein and placed in a test tube containing EDTA-K2. The tube was centrifuged at 2 to 8° C., 2000 rpm for 10 minutes to separate the plasma, which was stored at −75° C.
Determination of the content of the test compounds in cynomolgus monkey plasma after administration of different concentrations of drugs by gavage: 55 μL of cynomolgus monkey plasma at each time after administration was taken, and 200 μL of a solution of the internal standard verapamil or dexamethasone in acetonitrile. The mixture was mixed by vortexing for 30 seconds, centrifuged at 4° C., 3900 rpm for 15 minutes. The supernatant of the plasma samples were collected and diluted three times with water, and 15 μL was taken for LC/MS/MS analysis.

The nature of data set [4]: In vivo pharmacokinetics in rats (gavage). Set-up: species or system SD rats. To be noted: original drug, rat, 7.5 mpk. How it is done: Rats were used as the test animals. The plasma drug concentration at different times after the rats were given the compounds of the invention by gavage was determined by using the LC/MS/MS method. The in vivo pharmacokinetic behavior of the compounds of the present invention in rats was studied, and pharmacokinetic characteristics thereof were evaluated.
Test animals: 3 healthy, 6-8 weeks old male SD rats in each group
A certain amount of drug was weighed, and 0.5% by mass of hypromellose, 0.1% by volume of Tween 80 and 99.4% by volume of water were added thereto to formulate a white suspension at 1 mg/mL.
SD rats were fasted overnight, then the drug was administered by gavage. The dosage of reference 1 was 7.5 mg/kg, and the dosage of Example 1 was 5 mg/kg.
Rats were administered the compounds of the present invention by gavage. At 0.25, 0.5, 1, 2, 4, 8 and 24 hours after administration, 0.2 mL of blood was collected from the jugular vein and placed in a test tube containing EDTA-K2. The tube was centrifuged at 4° C., 4000 rpm for 5 minutes to separate the plasma, which was stored at −75° C.
Determination of the content of the test compounds in rat plasma after administration of different concentrations of drugs by gavage: 50 μL of rat plasma at each time after administration was taken, and 200 μL of a solution of the internal standard dexamethasone in acetonitrile (50 ng/mL). The mixture was mixed by vortexing for 30 seconds, centrifuged at 4° C., 4700 rpm for 15 minutes. The supernatant of the plasma samples were collected and diluted three times with water, and 2.0 μL was taken for the LC/MS/MS analysis.

A further data set deals with T2, CYP2C9 (Homo sapiens, UniProt P11712).
T2 construct: Mixed human liver microsomes from 150 donors; tissue Corning 452117; host or cells: pooled human liver microsomes (150 donors)
Briefly: CYP inhibition in mixed human liver microsomes, CYP2C9 (diclofenac sodium). The data set is classed as in vitro ADME. To be noted: mixed human liver microsomes 0.2 mg/mL, diclofenac sodium; read-out: Median inhibitory concentration (IC50) CYP 2C9. How it is done:
(§1) Mixed human liver microsomes from 150 donors (purchased from Corning, catalog number 452117) were used to evaluate the representative substrate metabolic responses of the five main human CYP subtypes (CYP1A2, CYP2C9, CYP2C19, CYP2D6 and CYP3A4/5). The influence of different concentrations of test compounds on the metabolic responses of phenacetin (CYP1A2), diclofenac sodium (CYP2C9), S-mephenytoin (CYP2C19), bufurolol hydrochloride (2D6) and midazolam (CYP3A4/5) was determined by liquid chromatography tandem mass spectrometry (LC/MS/MS).
(§2) 200 μL of the reaction system (100 mmol/L phosphate buffer, pH 7.4, containing 0.3% DMSO, 0.6% acetonitrile and 0.1% methanol by volume respectively) with 30 µM phenacetin, 10 μM diclofenac sodium, 35 μM S-mephenytoin, 5 μM bufurolol hydrochloride, 3 μM midazolam, 1 mM NADPH, test compound (at a concentration of 0.1, 0.3, 1, 3, 10 and 30 μmol/L respectively) or positive compound or blank control and mixed human liver microsomes (0.2 mg/mL) was incubated at 37° C. for 5 minutes. […]
(§3) The peak area was calculated based on the chromatograms. The residual activity ratio (%) was calculated using the following equation: […]
(§4) The CYP median inhibitory concentration (IC50) was calculated by Excel XLfit 5.3.1.3.

The next data set addresses T3, CYP2C19 (Homo sapiens, UniProt P33261).
T3 construct: Mixed human liver microsomes from 150 donors; tissue Corning 452117; host or cells: pooled human liver microsomes (150 donors)
Briefly: CYP inhibition in mixed human liver microsomes, CYP2C19 (S-mephenytoin). The data set is classed as in vitro ADME. Particulars: mixed human liver microsomes 0.2 mg/mL, S-mephenytoin; read-out: Median inhibitory concentration (IC50) CYP 2C19. How it is done:
as §1, §2, §3, §4

A further data set relates to CYP3A4/5. The data set can be described thus: CYP inhibition in mixed human liver microsomes, CYP3A4/5 (midazolam). The data set is classed as in vitro ADME. To be noted: mixed human liver microsomes (150 donors), pH 7.4, probe midazolam (3 μM), mixed human liver microsomes 0.2 mg/mL, read-out: Median inhibitory concentration (IC50) CYP 3A4/5. How it is done: as §1, §2, §3, §4

The next data set concerns the target T4, CYP1A2 (Homo sapiens, UniProt P05177).
T4 construct: Mixed human liver microsomes from 150 donors; tissue Corning 452117; host or cells: pooled human liver microsomes (150 donors)
T4 sequence (P05177 1-516): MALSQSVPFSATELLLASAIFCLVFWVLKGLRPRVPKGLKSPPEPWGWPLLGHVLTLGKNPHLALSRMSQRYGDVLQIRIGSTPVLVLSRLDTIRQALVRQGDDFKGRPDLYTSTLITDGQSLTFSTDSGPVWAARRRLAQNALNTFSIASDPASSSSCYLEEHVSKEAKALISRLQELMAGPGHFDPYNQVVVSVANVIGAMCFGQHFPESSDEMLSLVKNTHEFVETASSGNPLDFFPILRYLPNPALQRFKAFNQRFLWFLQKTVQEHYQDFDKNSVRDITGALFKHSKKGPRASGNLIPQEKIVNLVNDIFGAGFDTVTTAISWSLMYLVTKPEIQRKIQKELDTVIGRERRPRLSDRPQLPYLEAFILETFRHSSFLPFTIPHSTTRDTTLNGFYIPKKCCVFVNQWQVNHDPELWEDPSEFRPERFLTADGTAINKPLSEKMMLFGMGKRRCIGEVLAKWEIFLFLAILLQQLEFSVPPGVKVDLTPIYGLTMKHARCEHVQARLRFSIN
The data set can be described thus: CYP inhibition in mixed human liver microsomes, CYP1A2 (phenacetin). The data set is classed as in vitro ADME. Particulars: mixed human liver microsomes 0.2 mg/mL, phenacetin; read-out: Median inhibitory concentration (IC50) CYP 1A2. How it is done:
as §1, §2, §3, §4

The next data set addresses T5, CYP2D6 (Homo sapiens, UniProt P10635).
T5 construct: Mixed human liver microsomes from 150 donors; tissue Corning 452117; host or cells: pooled human liver microsomes (150 donors)
The data set can be described thus: CYP inhibition in mixed human liver microsomes, CYP2D6 (bufurolol hydrochloride). The data set is classed as in vitro ADME. To be noted: mixed human liver microsomes 0.2 mg/mL, bufurolol hydrochloride; read-out: Median inhibitory concentration (IC50) CYP 2D6. As for the experimental part:
as §1, §2, §3, §4

T2 sequence (P11712 whole entry): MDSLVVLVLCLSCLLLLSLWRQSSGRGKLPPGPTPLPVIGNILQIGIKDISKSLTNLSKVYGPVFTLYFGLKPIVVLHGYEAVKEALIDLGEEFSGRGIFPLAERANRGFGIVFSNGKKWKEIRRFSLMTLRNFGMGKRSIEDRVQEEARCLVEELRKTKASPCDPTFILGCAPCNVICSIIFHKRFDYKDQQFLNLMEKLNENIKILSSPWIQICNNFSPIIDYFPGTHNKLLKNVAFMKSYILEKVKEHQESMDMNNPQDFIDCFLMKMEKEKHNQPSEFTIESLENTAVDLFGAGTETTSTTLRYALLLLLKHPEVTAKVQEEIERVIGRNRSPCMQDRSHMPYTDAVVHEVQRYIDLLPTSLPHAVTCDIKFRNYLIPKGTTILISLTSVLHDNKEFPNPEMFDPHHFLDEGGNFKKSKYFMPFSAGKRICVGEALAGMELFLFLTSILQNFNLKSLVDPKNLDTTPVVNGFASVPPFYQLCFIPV
T5 sequence (P10635 whole entry): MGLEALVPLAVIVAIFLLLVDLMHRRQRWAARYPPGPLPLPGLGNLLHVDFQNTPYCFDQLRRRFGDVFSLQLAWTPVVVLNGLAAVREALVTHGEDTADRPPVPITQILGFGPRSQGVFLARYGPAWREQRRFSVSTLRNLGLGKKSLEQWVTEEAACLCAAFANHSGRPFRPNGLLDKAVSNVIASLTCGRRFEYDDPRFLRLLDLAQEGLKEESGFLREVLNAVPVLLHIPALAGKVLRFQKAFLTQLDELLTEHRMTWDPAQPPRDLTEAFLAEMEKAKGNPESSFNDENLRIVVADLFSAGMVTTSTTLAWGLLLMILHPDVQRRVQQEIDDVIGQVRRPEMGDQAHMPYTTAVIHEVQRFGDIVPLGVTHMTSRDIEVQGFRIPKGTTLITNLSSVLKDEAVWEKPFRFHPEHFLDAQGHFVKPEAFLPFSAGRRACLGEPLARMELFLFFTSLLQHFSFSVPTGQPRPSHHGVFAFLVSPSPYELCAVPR
T3 sequence (P33261 whole entry): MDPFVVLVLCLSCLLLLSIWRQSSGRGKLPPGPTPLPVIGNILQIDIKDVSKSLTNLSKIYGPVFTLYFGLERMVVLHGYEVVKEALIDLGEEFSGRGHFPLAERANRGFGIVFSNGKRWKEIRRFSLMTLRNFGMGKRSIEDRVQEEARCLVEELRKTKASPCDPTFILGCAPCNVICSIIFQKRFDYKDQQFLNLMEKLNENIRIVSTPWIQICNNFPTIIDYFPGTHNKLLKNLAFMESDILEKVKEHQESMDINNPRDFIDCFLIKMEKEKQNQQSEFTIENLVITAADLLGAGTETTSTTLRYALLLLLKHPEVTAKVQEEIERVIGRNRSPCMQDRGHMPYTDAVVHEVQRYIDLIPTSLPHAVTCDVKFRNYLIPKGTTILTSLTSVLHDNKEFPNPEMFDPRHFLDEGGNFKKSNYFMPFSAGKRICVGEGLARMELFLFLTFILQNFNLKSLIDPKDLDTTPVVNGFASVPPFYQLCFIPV

Molecule `[2H]C([2H])Nc1nccc(Sc2c(C)nc(N3CCC4(CC3)Cc3ncccc3[C@H]4N)n3ccnc23)c1Cl` [Example 5, (S)-1′-(8-((3-Chloro-2-((methyl-d2)amino)pyridin-4-yl)thio)-7-methylimidazo[1,2-c]pyrimidin-5-yl)-5,7-dihydrospiro[cyclopenta[b]pyridine-6,4′-piperidin]-5-amine] registered an IC50 in [1] of 0.0048 µM. In addition, the microsomal CLint at 1 µM in data set [2] was 26.6 µL/min/mg.

Turning to `CNc1nccc(Sc2c(C)nc(N3CCC4(CC3)Cc3ncccc3[C@H]4N)n3ccnc23)c1Cl` [Example 2, (S)-1′-(8-((3-Chloro-2-(methylamino)pyridin-4-yl)thio)-7-methylimidazo[1,2-c]pyrimidin-5-yl)-5,7-dihydrospiro[cyclopenta[b]pyridine-6,4′-piperidin]-5-amine], the AUC in [3] (read-out: Area under curve AUC) was 71000 ng·h/mL; in data set [4] (male, SD, plasma, po, 7.5 mg/kg, read-out: Area under curve AUC) it was 4250 ng·h/mL. Moreover, the Cmax was 12700 ng/mL in data set [3] (read-out: Maximum blood conc. Cmax) and 500 ng/mL in data set [4] (male, SD, plasma, po, 7.5 mg/kg, read-out: Maximum blood conc. Cmax). In addition, in data set [4], the “Area under curve of unit dose AUC/D” value was determined as 567 ng*h/mL per mg/kg. Also, the microsomal CLint at 1 µM in data set [2] turned out to be 19.2 µL/min/mg.

With `Nc1nccc(Sc2cnc(N3CCC4(CC3)Cc3ncccc3[C@H]4N)n3ccnc23)c1Cl` [Example 1, (S)-1′-(8-((2-Amino-3-chloropyridin-4-yl)thio)imidazo[1,2-c]pyrimidin-5-yl)-5,7-dihydrospiro[cyclopenta[b]pyridine-6,4′-piperidin]-5-amine], the IC50 on CYP2C9 was greater than 20 µM; at CYP2C19, greater than 20 µM; on CYP1A2, 9.21 µM; at CYP2D6 it was greater than 20 µM. The IC50 at 5 min in the data set with CYP3A4/5 was greater than 20 µM.

In data set [1], `[2H]CNc1nccc(Sc2c(C)nc(N3CCC4(CC3)Cc3ncccc3[C@H]4N)n3ccnc23)c1Cl` [Example 6, (S)-1′-(8-((3-Chloro-2-((methyl-d)amino)pyridin-4-yl)thio)-7-methylimidazo[1,2-c]pyrimidin-5-yl)-5,7-dihydrospiro[cyclopenta[b]pyridine-6,4′-piperidin]-5-amine] displayed an IC50 of 0.0047 µM. The microsomal CLint at 1 µM in [2] was 34.7 µL/min/mg.
